Activity calls are given as the source filed them.
How the values were obtained:
[1] = target: Ras and Rab interactor 1/Tyrosine-protein kinase ABL1 (Homo sapiens, UniProt P00519+Q13671); format: functional;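 note: biochemical TR-FRET dose-response test measuring inhibition of binding between Rin1 and Abl proteins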
[2] = AlphaScreen signal interference compounds, dose response, artefact control for ARNT-TACC3 interaction inhibitor project, biochemical, luminescence, cherry-pick (AID 651705); format: functional;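 note: AlphaScreen bead proximity signal that flags compounds interfering with the detection technology; potency reflects signal decrease which marks the compound as an assay artifact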
[3] = target: T1, Sentrin-specific protease 8 (Homo sapiens, UniProt Q96LD8); format: functional
T1 sequence (Q96LD8 whole entry): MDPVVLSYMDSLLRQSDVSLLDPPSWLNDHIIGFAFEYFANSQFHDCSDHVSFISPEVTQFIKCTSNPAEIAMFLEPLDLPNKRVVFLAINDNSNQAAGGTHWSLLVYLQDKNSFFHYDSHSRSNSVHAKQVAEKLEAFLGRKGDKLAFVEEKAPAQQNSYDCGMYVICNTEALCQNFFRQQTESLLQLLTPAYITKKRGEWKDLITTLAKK

SUMO-activating enzyme [4] = target: T2, SUMO-activating enzyme (Homo sapiens, UniProt Q9UBT2); test: inhibitors of in vitro SUMOylation cascade, primary screen, biochemical, HTRF, uHTS (AID 2006); format: protein-complex assay
[5] = target: T1, Sentrin-specific protease 8; format: functional; remark: listed apart in the source
SUMO-activating enzyme [6] = target: T2, SUMO-activating enzyme; test: SUMOylation inhibitor hit validation, confirmation, SUMOylation inhibitor project, biochemical, AlphaScreen (AID 2018); format: functional
[7] = target: Botulinum neurotoxin type F (Clostridium botulinum, UniProt P30996); test: High-throughput multiplex microsphere dose response for inhibitors of toxin protease, specifically Botulinum neurotoxin light chain F protease, compounds from Cherry Pick 02.; format: functional; conditions: read-out: EC50_MICROM
[8] = Counterscreen for inhibitors of Trypanosoma brucei methionyl tRNA synthetase (MetRS): Luminescence-based cell-based high throughput dose response assay to identify compounds that are cytotoxic to Jurkat human T lymphocyte cells.; format: functional
[9] = target: T3, Methionyl-tRNA synthetase, putative (Trypanosoma brucei brucei, UniProt Q38C91); format: functional, Trypanosoma brucei brucei strain 927/4 GUTat10.1
[10] = target: T3, Methionyl-tRNA synthetase, putative; format: functional, Trypanosoma brucei brucei strain 927/4 GUTat10.1; remark: listed apart in the source
Interleukin-8 [11] = target: T4, Interleukin-8 (Homo sapiens, UniProt P10145); test: Dose Response confirmation of uHTS small molecule hits for cystic fibrosis induced NFkb Inhibitors in a TNFa-induced IL8 counterscreen.; format: functional; conditions: read-out: IC50_Mean
Interleukin-8 [12] = target: T4, Interleukin-8; test: Dose Response confirmation of uHTS small molecule hits for cystic fibrosis induced NFkb Inhibitors in a PAF-induced IL8 counterscreen.; format: functional; conditions: read-out: IC50_Mean
[13] = target: Dual specificity protein phosphatase 3 (Homo sapiens, UniProt P51452); test: VHR phosphatase inhibition, dose response, selectivity assay for STEP inhibitor project, biochemical (AID 602374); format: functional; conditions: read-out: IC50_Mean
[14] = target: Tyrosine-protein phosphatase non-receptor type 11 (Homo sapiens, UniProt Q06124); test: SHP2 phosphatase inhibition, dose response, selectivity assay for STEP inhibitor project, biochemical (AID 602367); format: functional; conditions: read-out: IC50_Mean
[15] = target: Tyrosine-protein phosphatase non-receptor type 5 (Homo sapiens, UniProt P54829); test: STEP phosphatase inhibitors, confirmation, biochemical, fluorescence intensity, uHTS hits (AID 602372); format: functional; conditions: read-out: IC50_Mean

T4 sequence (P10145 whole entry): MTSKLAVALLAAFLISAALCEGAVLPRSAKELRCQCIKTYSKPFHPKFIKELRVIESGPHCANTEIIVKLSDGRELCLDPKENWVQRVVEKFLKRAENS
T3 sequence (Q38C91 whole entry): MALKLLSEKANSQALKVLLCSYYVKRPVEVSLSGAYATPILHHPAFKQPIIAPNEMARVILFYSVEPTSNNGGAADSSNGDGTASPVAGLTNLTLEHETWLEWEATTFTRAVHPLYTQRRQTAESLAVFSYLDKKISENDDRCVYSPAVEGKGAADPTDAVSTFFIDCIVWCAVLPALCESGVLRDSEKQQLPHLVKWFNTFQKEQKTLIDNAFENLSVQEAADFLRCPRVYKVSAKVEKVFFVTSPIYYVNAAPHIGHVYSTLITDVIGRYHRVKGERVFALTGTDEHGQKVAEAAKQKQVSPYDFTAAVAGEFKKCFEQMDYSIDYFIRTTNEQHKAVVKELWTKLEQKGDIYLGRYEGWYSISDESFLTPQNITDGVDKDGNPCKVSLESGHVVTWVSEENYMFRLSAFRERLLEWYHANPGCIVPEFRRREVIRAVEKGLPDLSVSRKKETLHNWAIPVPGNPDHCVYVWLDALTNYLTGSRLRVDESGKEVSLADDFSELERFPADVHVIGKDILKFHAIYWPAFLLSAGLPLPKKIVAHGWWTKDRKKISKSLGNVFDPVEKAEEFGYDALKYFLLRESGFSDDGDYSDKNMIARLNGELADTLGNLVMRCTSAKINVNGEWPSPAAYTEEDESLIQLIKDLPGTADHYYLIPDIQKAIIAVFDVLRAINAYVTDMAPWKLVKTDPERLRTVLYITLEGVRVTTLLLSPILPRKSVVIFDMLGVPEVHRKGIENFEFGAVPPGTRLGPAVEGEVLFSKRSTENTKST
T2 sequence (Q9UBE0 whole entry): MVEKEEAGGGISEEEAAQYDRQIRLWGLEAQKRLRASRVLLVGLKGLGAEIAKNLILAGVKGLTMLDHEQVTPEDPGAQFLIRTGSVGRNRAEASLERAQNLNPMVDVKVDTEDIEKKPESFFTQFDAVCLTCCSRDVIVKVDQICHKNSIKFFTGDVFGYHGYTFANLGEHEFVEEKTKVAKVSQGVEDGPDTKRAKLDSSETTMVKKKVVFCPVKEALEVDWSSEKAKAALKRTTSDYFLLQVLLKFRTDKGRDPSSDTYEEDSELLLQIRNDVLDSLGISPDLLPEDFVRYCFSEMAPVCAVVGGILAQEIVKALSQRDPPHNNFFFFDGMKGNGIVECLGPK
T2 sequence (Q9UBT2 whole entry): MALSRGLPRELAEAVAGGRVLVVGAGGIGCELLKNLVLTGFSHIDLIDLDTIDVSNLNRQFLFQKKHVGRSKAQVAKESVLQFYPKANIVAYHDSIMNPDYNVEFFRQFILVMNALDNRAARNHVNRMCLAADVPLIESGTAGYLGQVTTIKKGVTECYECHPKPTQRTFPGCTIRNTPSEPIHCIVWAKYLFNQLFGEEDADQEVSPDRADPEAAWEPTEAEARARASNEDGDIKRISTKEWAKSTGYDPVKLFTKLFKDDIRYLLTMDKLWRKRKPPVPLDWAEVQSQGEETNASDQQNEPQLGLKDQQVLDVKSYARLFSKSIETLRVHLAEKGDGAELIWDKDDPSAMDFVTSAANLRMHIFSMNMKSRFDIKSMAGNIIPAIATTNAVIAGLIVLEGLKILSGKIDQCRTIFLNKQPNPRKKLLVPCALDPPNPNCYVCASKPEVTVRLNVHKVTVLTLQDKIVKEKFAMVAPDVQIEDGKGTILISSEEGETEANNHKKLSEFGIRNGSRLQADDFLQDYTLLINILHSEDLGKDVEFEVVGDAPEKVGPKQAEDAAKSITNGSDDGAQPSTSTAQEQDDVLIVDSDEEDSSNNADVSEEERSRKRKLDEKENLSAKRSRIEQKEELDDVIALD
Botulinum neurotoxin type F, sequence (P30996 1-436 limits assumed): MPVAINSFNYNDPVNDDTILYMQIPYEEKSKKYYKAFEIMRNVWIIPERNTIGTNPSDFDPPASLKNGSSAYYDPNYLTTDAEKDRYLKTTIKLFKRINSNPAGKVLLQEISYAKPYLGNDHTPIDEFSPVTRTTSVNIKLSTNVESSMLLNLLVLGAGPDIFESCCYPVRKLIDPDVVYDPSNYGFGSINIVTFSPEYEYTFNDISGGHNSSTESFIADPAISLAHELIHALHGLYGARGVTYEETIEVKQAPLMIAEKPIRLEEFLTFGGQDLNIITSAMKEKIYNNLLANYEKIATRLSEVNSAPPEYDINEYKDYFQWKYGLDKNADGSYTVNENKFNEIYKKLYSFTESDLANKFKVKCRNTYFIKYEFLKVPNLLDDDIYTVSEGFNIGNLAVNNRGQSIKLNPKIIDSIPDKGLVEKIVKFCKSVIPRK
Ras and Rab interactor 1/Tyrosine-protein kinase ABL1, sequence (P00519 whole entry): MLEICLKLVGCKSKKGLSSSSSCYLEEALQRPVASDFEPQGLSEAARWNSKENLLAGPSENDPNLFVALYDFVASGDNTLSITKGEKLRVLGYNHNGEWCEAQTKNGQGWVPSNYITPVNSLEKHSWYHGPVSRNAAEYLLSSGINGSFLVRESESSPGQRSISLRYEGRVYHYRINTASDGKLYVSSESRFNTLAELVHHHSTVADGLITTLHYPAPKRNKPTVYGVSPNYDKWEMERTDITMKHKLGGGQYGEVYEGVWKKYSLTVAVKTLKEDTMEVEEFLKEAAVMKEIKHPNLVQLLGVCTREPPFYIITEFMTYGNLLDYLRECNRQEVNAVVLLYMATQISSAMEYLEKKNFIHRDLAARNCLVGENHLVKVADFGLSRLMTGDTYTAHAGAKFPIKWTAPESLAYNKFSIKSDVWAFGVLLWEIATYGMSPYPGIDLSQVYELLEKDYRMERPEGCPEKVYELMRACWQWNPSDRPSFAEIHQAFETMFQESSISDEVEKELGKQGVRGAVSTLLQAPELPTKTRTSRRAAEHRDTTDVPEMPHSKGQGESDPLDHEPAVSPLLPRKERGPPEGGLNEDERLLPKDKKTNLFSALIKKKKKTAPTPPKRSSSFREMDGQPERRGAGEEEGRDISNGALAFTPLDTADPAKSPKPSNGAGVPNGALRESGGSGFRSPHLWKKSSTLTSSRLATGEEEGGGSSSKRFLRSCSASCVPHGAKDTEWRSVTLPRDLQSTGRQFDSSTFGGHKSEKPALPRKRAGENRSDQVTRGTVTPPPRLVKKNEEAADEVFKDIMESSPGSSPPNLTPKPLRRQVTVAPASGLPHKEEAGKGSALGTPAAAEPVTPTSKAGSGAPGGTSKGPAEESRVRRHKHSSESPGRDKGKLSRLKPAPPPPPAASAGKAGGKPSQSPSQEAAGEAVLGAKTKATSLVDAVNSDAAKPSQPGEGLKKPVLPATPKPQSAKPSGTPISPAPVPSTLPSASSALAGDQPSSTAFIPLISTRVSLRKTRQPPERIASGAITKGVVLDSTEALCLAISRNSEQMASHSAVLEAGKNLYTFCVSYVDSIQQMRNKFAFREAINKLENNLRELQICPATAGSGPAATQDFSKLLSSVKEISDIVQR
Ras and Rab interactor 1/Tyrosine-protein kinase ABL1, sequence (Q13671 whole entry): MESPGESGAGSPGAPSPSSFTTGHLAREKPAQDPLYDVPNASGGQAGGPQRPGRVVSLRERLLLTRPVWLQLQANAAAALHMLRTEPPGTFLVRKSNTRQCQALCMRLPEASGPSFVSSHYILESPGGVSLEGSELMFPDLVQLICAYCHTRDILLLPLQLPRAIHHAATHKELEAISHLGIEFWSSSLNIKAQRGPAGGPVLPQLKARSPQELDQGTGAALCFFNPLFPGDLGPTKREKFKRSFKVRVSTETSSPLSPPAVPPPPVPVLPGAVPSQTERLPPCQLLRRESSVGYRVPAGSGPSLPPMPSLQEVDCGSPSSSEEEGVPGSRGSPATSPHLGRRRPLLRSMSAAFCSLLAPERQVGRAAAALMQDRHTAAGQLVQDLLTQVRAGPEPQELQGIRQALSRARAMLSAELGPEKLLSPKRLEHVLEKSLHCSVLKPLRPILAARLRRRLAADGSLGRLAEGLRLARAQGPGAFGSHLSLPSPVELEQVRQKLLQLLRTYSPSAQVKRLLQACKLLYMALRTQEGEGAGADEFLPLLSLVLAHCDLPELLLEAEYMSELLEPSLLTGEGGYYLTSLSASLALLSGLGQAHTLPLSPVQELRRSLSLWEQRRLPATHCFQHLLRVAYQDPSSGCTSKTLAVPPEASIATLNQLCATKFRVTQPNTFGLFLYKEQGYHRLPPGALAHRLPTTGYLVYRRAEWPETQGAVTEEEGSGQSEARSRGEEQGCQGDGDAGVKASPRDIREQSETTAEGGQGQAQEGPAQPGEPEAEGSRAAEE
Dual specificity protein phosphatase 3, sequence (P51452 whole entry): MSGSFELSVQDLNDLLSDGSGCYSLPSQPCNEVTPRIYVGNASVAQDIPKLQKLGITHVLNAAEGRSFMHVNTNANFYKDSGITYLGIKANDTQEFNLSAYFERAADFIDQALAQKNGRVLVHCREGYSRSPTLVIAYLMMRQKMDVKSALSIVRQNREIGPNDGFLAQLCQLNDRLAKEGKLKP
Tyrosine-protein phosphatase non-receptor type 11, sequence (Q06124 whole entry): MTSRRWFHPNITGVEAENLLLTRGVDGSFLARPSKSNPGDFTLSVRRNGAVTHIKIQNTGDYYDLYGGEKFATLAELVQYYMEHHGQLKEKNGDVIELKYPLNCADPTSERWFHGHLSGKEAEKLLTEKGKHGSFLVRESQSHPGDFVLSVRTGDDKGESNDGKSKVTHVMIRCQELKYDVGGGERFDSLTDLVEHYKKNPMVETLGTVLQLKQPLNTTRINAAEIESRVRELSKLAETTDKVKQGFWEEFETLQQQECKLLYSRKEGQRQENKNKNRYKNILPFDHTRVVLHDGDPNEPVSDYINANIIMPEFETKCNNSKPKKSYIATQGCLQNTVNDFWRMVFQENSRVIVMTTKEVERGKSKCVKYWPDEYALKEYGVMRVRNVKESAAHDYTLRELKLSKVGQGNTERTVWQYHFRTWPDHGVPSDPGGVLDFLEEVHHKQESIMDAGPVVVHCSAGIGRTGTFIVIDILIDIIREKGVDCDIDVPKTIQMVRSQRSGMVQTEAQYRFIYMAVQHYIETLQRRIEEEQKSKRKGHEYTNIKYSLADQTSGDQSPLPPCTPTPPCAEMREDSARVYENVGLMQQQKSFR

Nc1cc(O)c2[nH]cnc2n1
IC50 [1]: 33.6 µM (inactive)

O=S(=O)(c1ccc(Br)cc1)c1nc(-c2ccco2)oc1NCCCn1ccnc1
AC50 [2]: 108 µM (active)

COc1cc(O)c(NC(C)=O)c2nonc12
IC50 [3]: 8.37 µM (active) | IC50 (SUMO-activating enzyme [4]): 74.2 µM (active) | IC50 [5]: 14.6 µM (active) | IC50 (SUMO-activating enzyme [6]): 7.24 µM (active)

O=C(O)CN1CCN(CC(=O)O)CCN(CC(=O)O)CCN(CC(=O)O)CC1 [TETRAXETAN]
EC50 [7]: > 20 µM (inactive)

COc1ccccc1NC(=O)c1ccc(-n2ccnc2)c([N+](=O)[O-])c1
IC50 [8]: 83.3 µM (inactive) | IC50 [9]: 29 µM (inactive) | IC50 [10]: 55.4 µM (inactive)

O=S1(=O)CC=C(CSC(=S)NC2CCS(=O)(=O)C2)C1 (stereo not given)
IC50 (Interleukin-8 [11]): 3.68 µM (active) | IC50 (Interleukin-8 [12]): 2.06 µM (active)

Cc1ccc(Cn2cc(C=O)c(-c3ccc(C)cc3)n2)cc1
IC50 [13]: 73.9 µM (inactive) | IC50 [14]: > 80 µM (inactive) | IC50 [15]: > 80 µM (inactive)

Source: ChEMBL document CHEMBL1201862, “PubChem BioAssay data set” (2004)
